30 compounds from patent US10570121B2, “Substituted dihydroisoquinolinone compounds” (priority 2014, dated 2020) can be followed below.

Molecules are shown by their SMILES. pIC50, pKi: −log10 of the molar value. Like-named read-outs stand apart in the source and are kept apart here.

The target in one assay is WT EZH2 (Homo sapiens (Human), UniProt Q15910). Briefly: WT EZH2 nucleosome assay (10X SAM, high SAM conditions). The following applies: 15 uM SAM, Ki app from competitive inhibition fit; for pKi: read-out: WT EZH2 Nucleosome assay (10X SAM) Ki; for Ki: WT EZH2 Nucleosome assay (10X SAM) Ki (μM). The format is biochemical. On the procedure: (§1) The genes for EZH2, EED, SUZ12, and RBBP4 proteins were cloned into pBacPAK9 vectors (Clontech). RBBP4 was FLAG tagged on the N-terminal end. The baculovirus expressions of these proteins were used to co-infect SF9 insect cells. Insect cell pellets were lysed in a buffer containing 25 mM Tris pH8.0, 300 mM NaCl, 0.5 mM TCEP, complete EDTA-free protease inhibitor (Roche), 0.1% NP-40. The supernatant from the lysate was incubated with FLAG® M2 antibody resin (Sigma). The resin was washed on the chromatography column and eluted with 0.2 mg/ml FLAG peptide. The elute was incubated with omnicleave nucleases (Epicentre Technologies) at 4° C. overnight, then concentrated and loaded onto a Superdex 200 (GE Healthcare) column. The Superdex 200 column was eluted with 25 mM Tris pH8.0, 150 mM NaCl, 0.5 mM TCEP. Fractions containing the PRC2 complex were pooled.
(§2) A. Compound preparation • 1.
(§3) B. Reagent preparation • 1. […] Dilute TCA to 20% in DI water
(§4) C. Enzyme reaction • 1. […] Some compounds were tested under high SAM conditions.
(§5) D. Data analysis • 1. IC50 values were determined by fitting the data to a 4-parameter IC50 equation using proprietary curve fitting software. • 2. For compounds tested under high SAM conditions, Ki^app values were obtained by fitting the dose response curve to a model for competitive inhibition using proprietary curve fitting software. Preparation of HeLa Oligonucleosomes: Reagents • Cell Pellet: 15 L HeLa S3 (Accelgen)+6 L HeLa S3 (in house) • Mnase (Worthington Biochemicals) Equipment • SW-28 Rotor • Dounce Homogenizer/B Pestle Buffers • Lysis: 20 mM Hepes pH 7.5, 0.25M Sucrose, 3 mM MgCl2, 0.5% Nonidet P-40, 0.5 mM TCEP, 1 Roche Protease Tablet • B: 20 mM Hepes pH7.5, 3 mM MgCl2, 0.5 mM EDTA, 0.5 mM TCEP, 1 Roche Protease Tablet • MSB: 20 mM Hepes pH7.5, 0.4 M NaCl, 1 mM EDTA, 5% v/v Glycerol, 0.5 mM TCEP, 0.2 mM PMSF • LSB: 20 mM Hepes pH7.5, 0.1M NaCl, 1 mM EDTA, 0.5 mM TCEP, 0.2 mM PMSF • NG: 20 mM Hepes pH7.5, 1 mM EDTA, 0.4 m NaCl, 0.2 mM PMSF, 0.5 mM TCEP • Storage: 20 mM Hepes pH7.5, 1 mM EDTA, 10% Glycerol, 0.2 mM PMSF, 0.5 mM TCEP Protocol

A further assay has as its target EZH2 Mutant Y641N (Homo sapiens (Human), UniProt Q15910, Y641N). Briefly: EZH2 Mutant Y641N nucleosome assay. The format is biochemical. The following applies: PRC2 4-protein complex 6 nM, 1.5 μM SAM, HeLa oligonucleosomes; for pIC50: read-out: EZH2 Mutant Y641N Nucleosome assay IC50; for IC50: EZH2 Mutant Y641N Nucleosome assay IC50 (μM). On the procedure:
as §1, §2, §3, §4, §5

WT EZH2, sequence (Q15910 whole entry, looked up): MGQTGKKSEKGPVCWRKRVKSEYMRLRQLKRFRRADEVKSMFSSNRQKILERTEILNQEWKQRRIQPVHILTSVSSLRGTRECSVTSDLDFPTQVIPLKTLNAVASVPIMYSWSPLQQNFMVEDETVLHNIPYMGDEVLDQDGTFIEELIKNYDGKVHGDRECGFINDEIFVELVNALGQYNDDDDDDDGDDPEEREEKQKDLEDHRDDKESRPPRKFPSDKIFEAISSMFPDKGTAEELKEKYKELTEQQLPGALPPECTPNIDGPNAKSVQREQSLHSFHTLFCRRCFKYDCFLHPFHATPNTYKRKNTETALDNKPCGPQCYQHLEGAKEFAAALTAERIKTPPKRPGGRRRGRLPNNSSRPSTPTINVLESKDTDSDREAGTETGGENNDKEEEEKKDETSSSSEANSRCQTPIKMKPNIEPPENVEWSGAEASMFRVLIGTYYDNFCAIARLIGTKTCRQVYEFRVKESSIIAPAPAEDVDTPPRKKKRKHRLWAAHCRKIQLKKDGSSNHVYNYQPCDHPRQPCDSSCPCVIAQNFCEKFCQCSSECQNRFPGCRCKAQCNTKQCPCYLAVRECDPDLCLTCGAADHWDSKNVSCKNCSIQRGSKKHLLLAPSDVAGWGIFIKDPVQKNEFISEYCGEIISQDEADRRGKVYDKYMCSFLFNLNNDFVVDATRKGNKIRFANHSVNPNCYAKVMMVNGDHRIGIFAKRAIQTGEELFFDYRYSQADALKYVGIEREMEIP
WT EZH2, sequence (O75530 whole entry partner, looked up): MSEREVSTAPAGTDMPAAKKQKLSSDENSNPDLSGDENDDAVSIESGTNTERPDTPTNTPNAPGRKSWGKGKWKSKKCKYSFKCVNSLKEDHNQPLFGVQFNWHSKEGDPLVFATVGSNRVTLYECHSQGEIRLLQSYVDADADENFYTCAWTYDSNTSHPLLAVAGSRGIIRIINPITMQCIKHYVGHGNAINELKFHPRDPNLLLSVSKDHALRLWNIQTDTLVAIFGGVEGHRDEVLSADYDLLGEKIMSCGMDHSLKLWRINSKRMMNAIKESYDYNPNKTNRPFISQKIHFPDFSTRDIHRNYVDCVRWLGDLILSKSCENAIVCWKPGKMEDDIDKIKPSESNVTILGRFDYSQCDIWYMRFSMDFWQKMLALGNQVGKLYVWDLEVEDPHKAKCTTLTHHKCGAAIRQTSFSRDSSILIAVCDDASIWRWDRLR
WT EZH2, sequence (Q15022 whole entry partner, looked up): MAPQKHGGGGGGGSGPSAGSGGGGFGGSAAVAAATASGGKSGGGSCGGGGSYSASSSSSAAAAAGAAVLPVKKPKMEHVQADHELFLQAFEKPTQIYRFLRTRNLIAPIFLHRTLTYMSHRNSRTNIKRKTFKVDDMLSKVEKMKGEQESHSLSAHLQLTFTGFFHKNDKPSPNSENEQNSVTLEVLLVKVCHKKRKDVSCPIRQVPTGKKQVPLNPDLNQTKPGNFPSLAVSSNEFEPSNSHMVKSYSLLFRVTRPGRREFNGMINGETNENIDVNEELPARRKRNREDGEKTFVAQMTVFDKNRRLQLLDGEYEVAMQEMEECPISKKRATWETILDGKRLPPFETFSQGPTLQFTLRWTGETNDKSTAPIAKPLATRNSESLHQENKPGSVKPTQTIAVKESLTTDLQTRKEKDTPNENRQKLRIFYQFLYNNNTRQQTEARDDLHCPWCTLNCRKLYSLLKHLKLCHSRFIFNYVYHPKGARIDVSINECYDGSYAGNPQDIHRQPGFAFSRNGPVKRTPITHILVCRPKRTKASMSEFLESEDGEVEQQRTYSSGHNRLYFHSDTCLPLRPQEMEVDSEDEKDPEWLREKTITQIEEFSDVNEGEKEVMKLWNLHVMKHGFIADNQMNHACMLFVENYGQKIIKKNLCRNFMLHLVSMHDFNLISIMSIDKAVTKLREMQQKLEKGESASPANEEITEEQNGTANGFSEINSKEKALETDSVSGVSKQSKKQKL
WT EZH2, sequence (Q09028 whole entry partner, looked up): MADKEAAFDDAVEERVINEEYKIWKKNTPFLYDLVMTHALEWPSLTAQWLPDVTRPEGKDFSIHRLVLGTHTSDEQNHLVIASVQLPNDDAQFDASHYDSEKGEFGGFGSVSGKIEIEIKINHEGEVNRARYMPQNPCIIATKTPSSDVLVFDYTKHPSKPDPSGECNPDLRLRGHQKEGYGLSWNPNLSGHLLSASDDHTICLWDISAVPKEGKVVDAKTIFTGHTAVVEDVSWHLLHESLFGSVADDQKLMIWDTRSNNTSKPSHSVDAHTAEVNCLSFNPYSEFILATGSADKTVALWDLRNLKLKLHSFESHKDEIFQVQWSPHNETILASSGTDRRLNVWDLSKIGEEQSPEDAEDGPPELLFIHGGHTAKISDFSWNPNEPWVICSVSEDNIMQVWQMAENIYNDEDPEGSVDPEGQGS
EZH2 Mutant Y641N, sequence (Q15910 whole entry Y641N, looked up): as the sequence (Q15910 whole entry, looked up) above, with Y641N counted along it
EZH2 Mutant Y641N, sequence (O75530 whole entry partner, looked up): as the sequence (O75530 whole entry partner, looked up) above
EZH2 Mutant Y641N, sequence (Q15022 whole entry partner, looked up): as the sequence (Q15022 whole entry partner, looked up) above
EZH2 Mutant Y641N, sequence (Q09028 whole entry partner, looked up): as the sequence (Q09028 whole entry partner, looked up) above

Broadly, the pKi is −log10 of the Ki, conventionally taken in molar units. A word on the pIC50: it is the IC50 on a negative log10 scale, so that one unit is a factor of ten. As to `COC(c1cc(Cl)c2c(c1Cl)C(=O)N(Cc1c(C)cc(C)[nH]c1=O)CC2)C1CN(C(=O)CO)C1` (single isomer, unassigned) [Example 129], the negative logarithm of the Ki (pKi) on WT EZH2 was 9.10. The negative logarithm of the IC50 (pIC50) at EZH2 Mutant Y641N was 8.10.

With `COc1cc(C)[nH]c(=O)c1CN1CCc2c(Cl)cc(C(C3COC3)N(C)C)c(Cl)c2C1=O` (single isomer, unassigned) [Example 204], at WT EZH2, the negative logarithm of the Ki (pKi) is 8.70. At EZH2 Mutant Y641N, the pIC50 was 7.21.

`Cc1cc(C)c(CN2CCc3c(Cl)cc(C(CO)N4CC[C@@H](F)C4)c(Cl)c3C2=O)c(=O)[nH]1` (single isomer, unassigned) [Example 6]: at WT EZH2, the negative logarithm of the Ki (pKi) is 7.72. The pIC50 at EZH2 Mutant Y641N was 6.87.

For `Cc1cc(C)c(CN2CCc3ccc([C@@H](CO)[C@@H]4CCOC4)c(Cl)c3C2=O)c(=O)[nH]1` (racemic) [Example 64], the negative logarithm of the Ki (pKi) at WT EZH2 is 8.15. In addition, the pIC50 at EZH2 Mutant Y641N was 7.37.

As a reminder, the IC50 is the concentration needed to halve the response being measured. Low readings indicate greater potency, high ones weaker potency. `COC(c1cc(Cl)c2c(c1Cl)C(=O)N(Cc1c(C)cc(C)[nH]c1=O)CC2)C1CCOC1` (single isomer, unassigned) [Example 160]: the Ki on WT EZH2 worked out at 0.021 µM. This compound came in with an IC50 on EZH2 Mutant Y641N of 0.086 µM.

Take `COC(c1cc(Cl)c2c(c1Cl)C(=O)N(Cc1c(C)cc(C)[nH]c1=O)CC2)C1CCS(=O)(=O)C1` (single isomer, unassigned) [Example 151]: the pKi on WT EZH2 is 9.10. Moreover, the negative-log IC50 (pIC50) at EZH2 Mutant Y641N is 8.05.

In the case of `COC(c1cc(C)c2c(c1Cl)C(=O)N(Cc1c(C)cc(C)[nH]c1=O)CC2)C1CN(C2COC2)C1` (single isomer, unassigned) [Example 181], the pKi at WT EZH2 was 9.00. At EZH2 Mutant Y641N, the pIC50 is 7.39.

On to `COC(c1cc(Cl)c2c(c1Cl)C(=O)N(Cc1c(C)cc(C)[nH]c1=O)CC2)C1(F)CCN(C)CC1` (single isomer, unassigned) [Example 121], for which the pKi on WT EZH2 is 7.54. Besides, on EZH2 Mutant Y641N, the pIC50 was 6.59.

Consider `Cc1cc(C)c(CN2CCc3c(C)cc(C(CO)C4CCOCC4)c(Cl)c3C2=O)c(=O)[nH]1` (single isomer, unassigned) [Example 100], for which the pKi at WT EZH2 is 6.51. In addition, at EZH2 Mutant Y641N, the negative-log IC50 (pIC50) is 5.43.

`Cc1cc(C)c(CN2CCc3c(Cl)cc(C(CO)N4CCC(F)(F)C4)c(Cl)c3C2=O)c(=O)[nH]1` (single isomer, unassigned) [Example 67]: the pKi on WT EZH2 is 5.80. The negative-log IC50 (pIC50) at EZH2 Mutant Y641N was 4.71.

In the case of `Cc1cc(C)c(CN2CCc3c(Cl)cc(C(CO)N4CC[C@H](F)C4)c(Cl)c3C2=O)c(=O)[nH]1` (single isomer, unassigned) [Example 62], on WT EZH2, the pKi was 7.46. Further, at EZH2 Mutant Y641N, the negative logarithm of the IC50 (pIC50) was 6.58.

In the case of `COC(c1cc(Cl)c2c(c1Cl)C(=O)N(Cc1c(C)cc(C)[nH]c1=O)CC2)C1CC(=O)N(C)C1` (single isomer, unassigned) [Example 180], the pKi on WT EZH2 was 6.41. The negative-log IC50 (pIC50) at EZH2 Mutant Y641N was 5.67.

Turning to `Cc1cc(C)c(CN2CCc3c(Cl)cc(C(CO)N4CC[C@@H](F)C4)c(Cl)c3C2=O)c(=O)[nH]1` (single isomer, unassigned) [Example 7], on WT EZH2, the negative logarithm of the Ki (pKi) is 6.77. The pIC50 at EZH2 Mutant Y641N was 5.79.

On to `COC(c1cc(C)c2c(c1Cl)C(=O)N(Cc1c(C)cc(C)[nH]c1=O)CC2)C1CCS(=O)(=O)CC1` (single isomer, unassigned) [Example 131], for which the pKi on WT EZH2 is 9.15. In addition, at EZH2 Mutant Y641N, the pIC50 was 8.30.

Take `Cc1cc(C)c(CN2CCc3c(Cl)cc(C(C)N4CCOCC4)c(Cl)c3C2=O)c(=O)[nH]1` (single isomer, unassigned; (+)) [Example 90, (+)-5,8-dichloro-2-[(4,6-dimethyl-2-oxo-1,2-dihydropyridin-3-yl)methyl]-7-[1-(morpholin-4-yl)ethyl]-3,4-dihydroisoquinolin-1(2H)-one]: the pKi on WT EZH2 is 6.34. Further, on EZH2 Mutant Y641N, the pIC50 is 5.25.

For the compound `COc1cc(C)[nH]c(=O)c1CN1CCc2c(Cl)cc(C(OC)C3CCN(C=O)CC3)c(Cl)c2C1=O` (single isomer, unassigned) [Example 119], on WT EZH2, the pKi is 7.82. Also, the pIC50 on EZH2 Mutant Y641N is 7.00.

Regarding `Cc1cc(C)c(CN2CCc3c(Cl)cc(C(F)=C4CN(C(=O)CO)C4)c(Cl)c3C2=O)c(=O)[nH]1` [Example 79], the pKi at WT EZH2 was 7.77. For the same compound, the pIC50 on EZH2 Mutant Y641N was 6.88.

Take `COc1cc(C)[nH]c(=O)c1CN1CCc2c(C)cc([C@H](OC)[C@@H]3CCOC3)c(Cl)c2C1=O` [Example 83, 8-chloro-2-[(4-methoxy-6-methyl-2-oxo-1,2-dihydropyridin-3-yl)methyl]-7-{(R)-methoxy[(3R)-tetrahydrofuran-3-yl]methyl}-5-methyl-3,4-dihydroisoquinolin-1(2H)-one]: the negative-log Ki (pKi) at WT EZH2 was 9.40. In addition, the pIC50 at EZH2 Mutant Y641N is 8.40.

In the case of `COC(c1cc(Br)c2c(c1Cl)C(=O)N(Cc1c(C)cc(C)[nH]c1=O)CC2)C1CN(C(=O)CO)C1` (single isomer, unassigned) [Example 139], on WT EZH2, the pKi is 9.30. Besides, at EZH2 Mutant Y641N, the pIC50 is 8.07.

In the case of `Cc1cc(C)c(CN2CCc3c(Cl)cc(C(CO)N4CCC(F)(F)C4)c(Cl)c3C2=O)c(=O)[nH]1` (single isomer, unassigned) [Example 66], the pKi at WT EZH2 was 8.05. Moreover, the pIC50 at EZH2 Mutant Y641N was 7.09.

`COc1cc(C)[nH]c(=O)c1CN1CCc2c(Cl)cc(C(OC)C3CCOC3)c(Cl)c2C1=O` (single isomer, unassigned) [Example 126] gave a Ki at WT EZH2 of 0.056 µM. In addition, the half-inhibitory concentration (IC50) at EZH2 Mutant Y641N is 0.165 µM.

With `COC(c1cc(Cl)c2c(c1Cl)C(=O)N(Cc1c(C)cc(C)[nH]c1=O)CC2)C1CCN(C(=O)CC#N)CC1` (single isomer, unassigned) [Example 61], at WT EZH2, the pKi is 7.51. In addition, the negative-log IC50 (pIC50) on EZH2 Mutant Y641N is 6.90.

In the case of `Cc1cc(OC(F)F)c(CN2CCc3c(Cl)cc(C(CO)C4CCOC4)c(Cl)c3C2=O)c(=O)[nH]1` (single isomer, unassigned) [Example 93], on WT EZH2, the pKi was 6.80. The negative-log IC50 (pIC50) on EZH2 Mutant Y641N is 5.88.

For the compound `COC(c1cc(Cl)c2c(c1Cl)C(=O)N(Cc1c(C)cc(C)[nH]c1=O)CC2)C1CN(C(=O)CO)C1` (single isomer, unassigned) [Example 128], the pKi at WT EZH2 is 6.74. Also, the pIC50 on EZH2 Mutant Y641N is 5.93.

In the case of `Cc1cc(C)c(CN2CCc3c(Cl)cc([C@@H](CO)[C@@H]4CCOC4)c(Cl)c3C2=O)c(=O)[nH]1` [Example 4, 5,8-dichloro-2-[(4,6-dimethyl-2-oxo-1,2-dihydropyridin-3-yl)methyl]-7-{(1S)-2-hydroxy-1-[(3S)-tetrahydrofuran-3-yl]ethyl}-3,4-dihydroisoquinolin-1(2H)-one], at EZH2 Mutant Y641N, the negative logarithm of the IC50 (pIC50) was 5.71.

`[2H]C([2H])([2H])OC(c1cc(Cl)c2c(c1Cl)C(=O)N(Cc1c(C)cc(C)[nH]c1=O)CC2)C1CCN(C(=O)CO)CC1` (racemic) [Example 70] showed an IC50 at EZH2 Mutant Y641N of 0.006 µM.

With `COC(c1cc(Cl)c2c(c1Cl)C(=O)N(Cc1c(C)cc(C)[nH]c1=O)CC2)C1CCN(C(=O)CC#N)CC1` (single isomer, unassigned) [Example 71], the pIC50 at EZH2 Mutant Y641N was 8.52.

Turning to `Cc1cc(OC(F)F)c(CN2CCc3c(Cl)cc(C(CO)C4CCOCC4)c(Cl)c3C2=O)c(=O)[nH]1` (single isomer, unassigned) [Example 56], at EZH2 Mutant Y641N, the pIC50 was 8.40.

On to `COC(c1cc(Cl)c2c(c1Cl)C(=O)N(Cc1c(C)cc(C)[nH]c1=O)CC2)C1CCN(C=O)CC1` (single isomer, unassigned) [Example 73], for which, on EZH2 Mutant Y641N, the pIC50 is 8.70.

`COC(c1cc(Cl)c2c(c1Cl)C(=O)N(Cc1c(C)cc(C)[nH]c1=O)CC2)C1CCOCC1` (single isomer, unassigned) [Example 51]: the pIC50 at EZH2 Mutant Y641N is 8.70.
